#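 Here, GI50 denotes the concentration required for 50% inhibition of growth. TGI marks complete inhibition of growth.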
# Key:
# Assay in all cases: inhibition of tumour cell growth, NCI panel, 384-well format
# [1] = tested on: A498 renal
# [2] = tested on: NCI/ADR-RES ovarian
# [3] = tested on: UACC-257 melanoma
# [4] = tested on: ACHN renal
# [5] = tested on: OVCAR-3 ovarian
# [6] = tested on: MCF7 breast
# [7] = tested on: SR leukemia
# [8] = tested on: HS 578T breast
# [9] = tested on: MDA-MB-468 breast
# [10] = tested on: SF-295 CNS
# [11] = tested on: SK-MEL-28 melanoma
# [12] = tested on: BT-549 breast
# [13] = tested on: OVCAR-4 ovarian
# [14] = tested on: M14 melanoma
# [15] = tested on: T-47D breast
# [16] = tested on: NCI-H460 NSCLC
# [17] = tested on: SF-539 CNS
# [18] = tested on: SNB-75 CNS
# [19] = tested on: HOP-62 NSCLC
# [20] = tested on: UO-31 renal
# [21] = tested on: RXF 393 renal
# [22] = tested on: UACC-62 melanoma
# [23] = tested on: HCT-116 colon
# [24] = tested on: A549 NSCLC
# [25] = tested on: LOX IMVI melanoma
# [26] = tested on: SN12C renal
# [27] = tested on: NCI-H226 lung
# [28] = tested on: 786-0 renal
# [29] = tested on: NCI-H522 lung
# [30] = tested on: CCRF-CEM leukemia
structure (smiles),measurement,setting,value
CC[C@H](Nc1ncnc2nc[nH]c12)c1oc2ccccc2c(=O)c1-c1cccc(F)c1,GI50,[1],27.8 µM
same,TGI,[1],> 100 µM
same,GI50,[2],24 µM
same,TGI,[2],60.4 µM
same,GI50,[3],33 µM
same,TGI,[3],> 87.9 µM
same,GI50,[4],23.2 µM
same,TGI,[4],77.5 µM
same,GI50,[5],18.2 µM
same,TGI,[5],40.8 µM
same,GI50,[6],29.6 µM
same,TGI,[6],> 87.3 µM
same,GI50,[7],12.4 µM
same,TGI,[7],25.2 µM
same,GI50,[8],15.1 µM
same,TGI,[8],37.2 µM
same,GI50,[9],9.6 µM
same,TGI,[9],27.2 µM
same,GI50,[10],20.7 µM
same,TGI,[10],> 74.6 µM
same,GI50,[11],27.7 µM
same,TGI,[11],> 86.1 µM
same,GI50,[12],15.5 µM
same,TGI,[12],39.5 µM
same,GI50,[13],17.9 µM
same,TGI,[13],54.2 µM
same,GI50,[14],37.7 µM
same,TGI,[14],> 100 µM
same,GI50,[15],24.4 µM
same,TGI,[15],> 86.2 µM
same,GI50,[16],34.7 µM
same,TGI,[16],> 100 µM
same,GI50,[17],45.9 µM
same,TGI,[17],> 100 µM
same,GI50,[18],23.2 µM
same,TGI,[18],60.7 µM
same,GI50,[19],30.1 µM
same,TGI,[19],> 100 µM
same,GI50,[20],3.16 µM
same,TGI,[20],> 100 µM
same,GI50,[21],21.1 µM
same,TGI,[21],> 69.5 µM
same,GI50,[22],16.3 µM
same,TGI,[22],36.8 µM
same,GI50,[23],36.9 µM
same,TGI,[23],> 100 µM
same,GI50,[24],27.9 µM
same,TGI,[24],> 100 µM
same,GI50,[25],26.3 µM
same,TGI,[25],82.1 µM
same,GI50,[26],30.5 µM
same,TGI,[26],98.9 µM
same,GI50,[27],23.8 µM
same,TGI,[27],83 µM
same,GI50,[28],27.2 µM
same,TGI,[28],> 95 µM
same,GI50,[29],20.6 µM
same,TGI,[29],47.7 µM
same,GI50,[30],16.8 µM
same,TGI,[30],31 µM
